Patent US11691962B2 (eXIthera Pharmaceuticals, Inc., priority 2018, dated 2023)

How the values were obtained:
Type in all cases: biochemical
[1] = molecular target: Thrombin (Homo sapiens (Human), UniProt P00734); test: Dose response assay for protease inhibitors: thrombin; conditions: selectivity, thrombin over Factor XIa
How it was run: (§1)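 Fluorogenic AMC-peptide cleavage in 20 mM Hepes pH 7.4, 150 mM NaCl, 0.02% Tween 20; 100 μM stock substrate dilution (Glp-Pro-Arg-AMC for thrombin/trypsin; Pro-Phe-Arg-AMC or Boc-Leu-Gly-Arg-AMC for Factor Xa). Enzyme diluted to 0.5 nM, added last to two-fold compound series; kinetic read at 30° C, 30 min (Factor Xa 60 min); IC50 fitted.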

[2] = molecular target: Factor Xa (Homo sapiens (Human), UniProt P00742); test: Dose response assay for protease inhibitors: Factor Xa; conditions: selectivity, Factor Xa over Factor XIa
Chain of Factor Xa (P00742 235-488): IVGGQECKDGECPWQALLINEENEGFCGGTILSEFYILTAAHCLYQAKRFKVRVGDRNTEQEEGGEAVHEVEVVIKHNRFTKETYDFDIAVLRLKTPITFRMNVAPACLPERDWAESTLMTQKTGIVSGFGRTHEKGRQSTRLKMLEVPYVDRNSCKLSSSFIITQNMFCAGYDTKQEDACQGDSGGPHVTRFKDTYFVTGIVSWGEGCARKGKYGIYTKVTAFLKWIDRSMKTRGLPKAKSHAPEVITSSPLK
Chain of Factor Xa (P00742 41-179 partner): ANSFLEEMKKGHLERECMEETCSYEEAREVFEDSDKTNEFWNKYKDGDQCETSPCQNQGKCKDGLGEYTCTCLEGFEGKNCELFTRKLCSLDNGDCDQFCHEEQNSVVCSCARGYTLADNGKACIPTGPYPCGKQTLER
How it was run: as §1

[3] = test system: Trypsin; test: Dose response assay for protease inhibitors: trypsin; conditions: selectivity, trypsin over Factor XIa
How it was run: as §1

[4] = molecular target: Factor XIa (Homo sapiens (Human), UniProt P03951); test: Factor XIa enzyme inhibition assay (dose response, fluorogenic AMC substrate); conditions: read-out: hFXIa IC50
Chain of Factor XIa (P03951 388-625): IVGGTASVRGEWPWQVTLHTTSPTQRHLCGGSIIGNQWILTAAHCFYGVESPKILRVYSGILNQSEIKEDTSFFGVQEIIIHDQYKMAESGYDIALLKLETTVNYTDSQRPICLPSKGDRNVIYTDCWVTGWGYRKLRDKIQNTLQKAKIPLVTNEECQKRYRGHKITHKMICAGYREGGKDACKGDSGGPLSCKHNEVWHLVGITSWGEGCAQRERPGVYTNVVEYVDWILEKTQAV
Chain of Factor XIa (P03951 19-387 partner): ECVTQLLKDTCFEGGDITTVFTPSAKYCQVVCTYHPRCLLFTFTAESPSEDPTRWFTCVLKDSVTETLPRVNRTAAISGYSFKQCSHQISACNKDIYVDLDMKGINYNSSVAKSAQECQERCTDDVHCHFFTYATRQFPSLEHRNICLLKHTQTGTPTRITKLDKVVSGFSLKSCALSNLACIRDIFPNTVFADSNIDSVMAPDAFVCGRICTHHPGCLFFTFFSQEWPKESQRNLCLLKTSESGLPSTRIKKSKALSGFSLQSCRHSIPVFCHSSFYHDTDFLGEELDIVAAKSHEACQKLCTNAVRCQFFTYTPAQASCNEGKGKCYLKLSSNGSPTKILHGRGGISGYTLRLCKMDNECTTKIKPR
How it was run: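 Human FXIa at 0.25 nM final with 50 μM final PyroGlu-Pro-Arg-AMC in 20 mM Hepes pH 7.4, 150 mM NaCl, 0.02% Tween 20. Two-fold serial compound dilutions; fluorescence read every minute for 30 min at 30° C. IC50 from a four-parameter Hill fit.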

| Compound | Ratio: Thrombin/FXIa [1] | Ratio: FXa/FXIa [2] | Ratio: Trypsin/FXIa [3] | IC50 [4] [µM] |
| --- | --- | --- | --- | --- |
| CC[C@@H](NC(=O)N1C(=O)[C@H](Cc2ccnc(N)c2)[C@H]1C(=O)N(C)c1ccn(C)n1)c1cc(F)c(F)c(F)c1 [Compound 1-197, (2S,3R)-3-((2-aminopyridin-4-yl)methyl)-N2-(1-methyl-1H-pyrazol-3-yl)-N1-((R)-1-(3,4,5-trifluorophenyl)propyl)-N2-methyl-4-oxoazetidine-1,2-dicarboxamide] | I (“I” indicates > 500) | I (“I” indicates > 500) | H (“H” indicates 101-1000) | < 0.01 |
| CC[C@@H](NC(=O)N1C(=O)[C@H](Cc2ccnc(N)c2)[C@H]1C(=O)N(C)c1nccn1C)c1cc(C)ccc1F [Compound 1-102, (2S,3R)-3-((2-aminopyridin-4-yl)methyl)-N2-(1-methyl-1H-imidazol-2-yl)-N1-((R)-1-(2-fluoro-5-methylphenyl)propyl)-N2-methyl-4-oxoazetidine-1,2-dicarboxamide] | H (“H” indicates 101-1000) | I (“I” indicates > 500) | G (“G” indicates 1-100) | < 0.01 |
| CC[C@@H](NC(=O)N1C(=O)[C@H](Cc2cc(C)nc(N)c2)[C@H]1C(=O)N(C)c1cnn(C)c1)c1cc(C)cc(C)c1 [Compound 1-185, (2S,3R)-3-((2-amino-6-methylpyridin-4-yl)methyl)-N2-(1-methyl-1H-pyrazol-4-yl)-N1-((R)-1-(3,5-dimethylphenyl)propyl)-N2-methyl-4-oxoazetidine-1,2-dicarboxamide] | H (“H” indicates 101-1000) | I (“I” indicates > 500) | G (“G” indicates 1-100) | < 0.01 |
| CN(C(=O)[C@@H]1[C@@H](Cc2ccnc(N)c2)C(=O)N1C(=O)NCc1cccc(Cl)c1)c1ccn(C)n1 [Compound 1-26, (2S,3R)-3-((2-aminopyridin-4-yl)methyl)-N2-(1-methyl-1H-pyrazol-3-yl)-N1-((3-chlorophenyl)methyl)-N2-methyl-4-oxoazetidine-1,2-dicarboxamide] | G (“G” indicates 1-100) | H (“H” indicates 101-1000) | G (“G” indicates 1-100) | 0.01 to 0.1 |
| CC[C@@H](NC(=O)N1C(=O)[C@H](Cc2cc(C)nc(NC)c2)[C@H]1C(=O)N(C)c1cn(C)cn1)c1ccccc1 [Compound 1-72, (2S,3R)-3-((2-methylamino-6-methylpyridin-4-yl)methyl)-N2-(1-methyl-1H-imidazol-4-yl)-N1-((R)-1-phenylpropyl)-N2-methyl-4-oxoazetidine-1,2-dicarboxamide] | G (“G” indicates 1-100) | H (“H” indicates 101-1000) | G (“G” indicates 1-100) | 0.01 to 0.1 |
| CC[C@@H](NC(=O)N1C(=O)[C@H](Cc2ccnc(N)c2)[C@H]1C(=O)N(C)c1cccs1)c1cccc(Cl)c1 [Compound 1-28, (2S,3R)-3-((2-aminopyridin-4-yl)methyl)-N2-(thiophen-2-yl)-N1-((R)-1-(3-chlorophenyl)propyl)-N2-methyl-4-oxoazetidine-1,2-dicarboxamide] | H (“H” indicates 101-1000) | G (“G” indicates 1-100) | G (“G” indicates 1-100) | < 0.01 |
| CC[C@@H](NC(=O)N1C(=O)[C@H](Cc2ccnc(N)c2)[C@H]1C(=O)N(C)c1nccn1C)c1ccc(F)cc1 [Compound 1-98, (2S,3R)-3-((2-aminopyridin-4-yl)methyl)-N2-(1-methyl-1H-imidazol-2-yl)-N1-((R)-1-(4-fluorophenyl)propyl)-N2-methyl-4-oxoazetidine-1,2-dicarboxamide] | H (“H” indicates 101-1000) | I (“I” indicates > 500) | G (“G” indicates 1-100) | < 0.01 |
| (2S,3R)-3-((2-aminopyridin-4-yl)methyl)-N2-(1-methyl-1H-pyrazol-3-yl)-N1-((S)-1-(3-chlorophenyl)ethyl)-N2-methyl-4-oxoazetidine-1,2-dicarboxamide [Compound 1-33] | H (“H” indicates 101-1000) | H (“H” indicates 101-1000) | G (“G” indicates 1-100) | < 0.01 |
| CC[C@@H](NC(=O)N1C(=O)[C@H](Cc2ccnc(N)c2)[C@H]1C(=O)N(C)c1ccn(C)n1)c1ccc(F)c(C)c1F [Compound 1-198, (2S,3R)-3-((2-aminopyridin-4-yl)methyl)-N2-(1-methyl-1H-pyrazol-3-yl)-N1-((R)-1-(2,4-difluoro-3-methylphenyl)propyl)-N2-methyl-4-oxoazetidine-1,2-dicarboxamide] | H (“H” indicates 101-1000) | I (“I” indicates > 500) | H (“H” indicates 101-1000) | < 0.01 |
| CC[C@@H](NC(=O)N1C(=O)[C@H](Cc2ccnc(N)c2)[C@H]1C(=O)N(C)c1nccn1C)c1ccc(Cl)cc1 [Compound 1-94, (2S,3R)-3-((2-aminopyridin-4-yl)methyl)-N2-(1-methyl-1H-imidazol-2-yl)-N1-((R)-1-(4-chlorophenyl)propyl)-N2-methyl-4-oxoazetidine-1,2-dicarboxamide] | H (“H” indicates 101-1000) | H (“H” indicates 101-1000) | G (“G” indicates 1-100) | < 0.01 |
| CC[C@@H](NC(=O)N1C(=O)[C@H](Cc2ccnc(N)c2)[C@H]1C(=O)N(C)c1nccn1C)c1cc(C)ccc1Cl [Compound 1-101, (2S,3R)-3-((2-aminopyridin-4-yl)methyl)-N2-(1-methyl-1H-imidazol-2-yl)-N1-((R)-1-(2-chloro-5-methylphenyl)propyl)-N2-methyl-4-oxoazetidine-1,2-dicarboxamide] | H (“H” indicates 101-1000) | H (“H” indicates 101-1000) | G (“G” indicates 1-100) | < 0.01 |
| CC[C@@H](NC(=O)N1C(=O)[C@H](Cc2ccnc(N)c2)[C@H]1C(=O)N(C)c1nccn1C)c1cc(F)c(F)c(F)c1 [Compound 1-193, (2S,3R)-3-((2-aminopyridin-4-yl)methyl)-N2-(1-methyl-1H-imidazol-2-yl)-N1-((R)-1-(3,4,5-trifluorophenyl)propyl)-N2-methyl-4-oxoazetidine-1,2-dicarboxamide] | H (“H” indicates 101-1000) | I (“I” indicates > 500) | G (“G” indicates 1-100) | < 0.01 |
| CN(C(=O)[C@@H]1[C@@H](Cc2ccnc(N)c2)C(=O)N1C(=O)NC(c1cccc(Cl)c1)C(F)(F)F)c1ccn(C)n1 (stereo in doubt) [Compound 1-38, (2S,3R)-3-((2-aminopyridin-4-yl)methyl)-N2-(1-methyl-1H-pyrazol-3-yl)-N1-((R)-1-(3-chlorophenyl)-2,2,2-trifluoroethyl)-N2-methyl-4-oxoazetidine-1,2-dicarboxamide] | G (“G” indicates 1-100) | H (“H” indicates 101-1000) | G (“G” indicates 1-100) | < 0.01 |
| CC[C@@H](NC(=O)N1C(=O)[C@H](Cc2ccnc(N)c2)[C@H]1C(=O)N(C)c1nccn1C)c1ccc(F)c(C)c1F [Compound 1-194, (2S,3R)-3-((2-aminopyridin-4-yl)methyl)-N2-(1-methyl-1H-imidazol-2-yl)-N1-((R)-1-(2,4-difluoro-3-methylphenyl)propyl)-N2-methyl-4-oxoazetidine-1,2-dicarboxamide] | H (“H” indicates 101-1000) | I (“I” indicates > 500) | H (“H” indicates 101-1000) | < 0.01 |
| CC[C@@H](NC(=O)N1C(=O)[C@H](Cc2ccnc(N)c2)[C@H]1C(=O)N(C)c1ccn(C)n1)c1cccc(F)c1F [Compound 1-134, (2S,3R)-3-((2-aminopyridin-4-yl)methyl)-N2-(1-methyl-1H-pyrazol-3-yl)-N1-((R)-1-(2,3-difluorophenyl)propyl)-N2-methyl-4-oxoazetidine-1,2-dicarboxamide] | H (“H” indicates 101-1000) | I (“I” indicates > 500) | G (“G” indicates 1-100) | < 0.01 |
| CC[C@@H](NC(=O)N1C(=O)[C@H](Cc2ccnc(N)c2)[C@H]1C(=O)N(C)c1nccn1C)c1cc(C)ccc1C [Compound 1-99, (2S,3R)-3-((2-aminopyridin-4-yl)methyl)-N2-(1-methyl-1H-imidazol-2-yl)-N1-((R)-1-(2,5-dimethylphenyl)propyl)-N2-methyl-4-oxoazetidine-1,2-dicarboxamide] | H (“H” indicates 101-1000) | H (“H” indicates 101-1000) | G (“G” indicates 1-100) | < 0.01 |
| CC[C@@H](NC(=O)N1C(=O)[C@H](Cc2ccnc(N)c2)[C@H]1C(=O)N(C)c1ccnn1C)c1ccc(F)c(C)c1F [Compound 1-200] | I (“I” indicates > 500) | I (“I” indicates > 500) | H (“H” indicates 101-1000) | < 0.01 |
